{"source": "patent US5023079A", "about": "“Heptaene V-28-3 antibiotic derivative” (Ajinomoto Co., Inc., priority 1987, dated 1991)", "key": {"[1]": {"tested_on": "Candida albicans (strain C3)", "test": "Experimental (mouse) candidiasis, survival ratio", "assay_type": "in vivo, Candida albicans (strain C3) in male ICR-strain mice", "conditions": "1 hr after infection, day-8, groups of 10 mice", "description": "Male ICR-strain mice, weighing 20-22 g, were used in groups of 10. A 0.2 ml cell suspension of Candida albicans (strain C3) was injected IV via the tail vein, inoculum size being 2.5×10^7 cells/mouse. The test drugs (0.2 ml) were administered IV via the tail vein once at 1 hr after the infection.\nThe therapeutic effect of the test drugs was expressed as the survival ratio at day-8 after infection."}, "[2]": {"test": "Acute toxicity (LD50, IV)", "conditions": "mouse, in vivo, male ICR-strain mice, survivors at day-5, read-out: LD50 (50% lethal dose)", "description": "An acute toxicity study was carried out with male ICR-strain mice. LD50 (50% lethal dose) was calculated on the basis of the number of survivors at day-5 after IV administration of the drugs."}}}
{"smiles": "C[C@@H]1[C@H](O)[C@@H](C)/C=C/C=C/C=C/C=C/C=C/C=C/C=C/[C@H](O[C@@H]2O[C@H](C)[C@@H](O)[C@H](N)[C@@H]2O)C[C@@H]2O[C@](O)(C[C@@H](O)C[C@@H](O)[C@H](O)CC[C@@H](O)C[C@@H](O)CC(=O)O[C@H]1C)C[C@H](O)[C@H]2C(=O)O", "note": "[amphotericin B]", "values": [{"measurement": "Survival ratio", "setting": "[1]; 0.125 mg/kg IV once", "value": 0, "unit": "%"}, {"measurement": "Survival ratio", "setting": "[1]; 0.25 mg/kg IV once", "value": 70, "unit": "%"}, {"measurement": "Survival ratio", "setting": "[1]; 0.5 mg/kg IV once", "value": 100, "unit": "%"}, {"measurement": "LD50 at 120 h", "setting": "[2]", "value": 4.1, "unit": "mg/kg"}]}
